According to PubChem BioAssay AID1963842 (Molecular Pharmacology Branch, DTP, NCI, 2024):

Test system: 677734-321-R-J1-PDC complex spheroid viability
Test: Anticancer human tumor 677734-321-R-J1-PDC patient-derived soft tissue sarcoma cell line growth inhibition [POLQ]
Settings: for IC50: curve of first compound; for viability, T/C: stronger effect = lower value
How it was run: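 Complex spheroid viability model combining PDC tumour cells with endothelial (HUVEC) and MSC stromal cells. Novobiocin, ART-558 or RP6685 were tested singly and in combination with standard and investigational anticancer drugs. Each was titrated in half-log steps from near clinical Cmax, or from 10 microM where Cmax was unknown.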

[1] = second compound 0.0316 µM, first compound 0.0316 µM
[2] = second compound 0.0316 µM, first compound 0.1 µM
[3] = second compound 0.0316 µM, first compound 0.316 µM
[4] = second compound 0.0316 µM, first compound 1 µM
[5] = second compound 0.0316 µM, first compound 3.16 µM
[6] = second compound 0.0316 µM, first compound 10 µM
[7] = second compound 0.1 µM, first compound 0.0316 µM
[8] = second compound 0.1 µM, first compound 0.1 µM
[9] = second compound 0.1 µM, first compound 0.316 µM
[10] = second compound 0.1 µM, first compound 1 µM
[11] = second compound 0.1 µM, first compound 3.16 µM
[12] = second compound 0.1 µM, first compound 10 µM
[13] = second compound 0.316 µM, first compound 0.0316 µM
[14] = second compound 0.316 µM, first compound 0.1 µM
[15] = second compound 0.316 µM, first compound 0.316 µM
[16] = second compound 0.316 µM, first compound 1 µM
[17] = second compound 0.316 µM, first compound 3.16 µM
[18] = second compound 0.316 µM, first compound 10 µM
[19] = second compound 1 µM, first compound 0.0316 µM
[20] = second compound 1 µM, first compound 0.1 µM
[21] = second compound 1 µM, first compound 0.316 µM
[22] = second compound 1 µM, first compound 1 µM
[23] = second compound 1 µM, first compound 3.16 µM
[24] = second compound 1 µM, first compound 10 µM
[25] = second compound 3.16 µM, first compound 0.0316 µM
[26] = second compound 3.16 µM, first compound 0.1 µM
[27] = second compound 3.16 µM, first compound 0.316 µM
[28] = second compound 3.16 µM, first compound 1 µM
[29] = second compound 3.16 µM, first compound 3.16 µM
[30] = second compound 3.16 µM, first compound 10 µM
[31] = second compound 10 µM, first compound 0.0316 µM
[32] = second compound 10 µM, first compound 0.1 µM
[33] = second compound 10 µM, first compound 0.316 µM
[34] = second compound 10 µM, first compound 1 µM
[35] = second compound 10 µM, first compound 3.16 µM
[36] = second compound 10 µM, first compound 10 µM
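Further: spheroids exposed to compounds for one week.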
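Wherever viability, T/C is given: 100% = vehicle DMSO treated spheroids.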

SMILES: CNCc1ccc(-c2[nH]c3cc(F)cc4c3c2CCNC4=O)cc1 + COC1C(OC(N)=O)C(O)C(Oc2ccc3c(O)c(NC(=O)c4ccc(O)c(CC=C(C)C)c4)c(=O)oc3c2C)OC1(C)C
- IC50 (second compound 0.0316 µM): > 10000 nM
- IC50 (second compound 0.1 µM): > 10000 nM
- IC50 (second compound 0.316 µM): > 10000 nM
- IC50 (second compound 1 µM): > 10000 nM
- IC50 (second compound 3.16 µM): > 10000 nM
- IC50 (second compound 10 µM): > 10000 nM
- viability, T/C [1]: 101%
- viability, T/C [2]: 103%
- viability, T/C [3]: 96.6%
- viability, T/C [4]: 107%
- viability, T/C [5]: 111%
- viability, T/C [6]: 103%
- viability, T/C [7]: 103%
- viability, T/C [8]: 101%
- viability, T/C [9]: 101%
- viability, T/C [10]: 109%
- viability, T/C [11]: 104%
- viability, T/C [12]: 96.5%
- viability, T/C [13]: 107%
- viability, T/C [14]: 102%
- viability, T/C [15]: 106%
- viability, T/C [16]: 106%
- viability, T/C [17]: 104%
- viability, T/C [18]: 103%
- viability, T/C [19]: 114%
- viability, T/C [20]: 99.8%
- viability, T/C [21]: 101%
- viability, T/C [22]: 107%
- viability, T/C [23]: 106%
- viability, T/C [24]: 104%
- viability, T/C [25]: 102%
- viability, T/C [26]: 106%
- viability, T/C [27]: 100%
- viability, T/C [28]: 110%
- viability, T/C [29]: 108%
- viability, T/C [30]: 101%
- viability, T/C [31]: 106%
- viability, T/C [32]: 102%
- viability, T/C [33]: 106%
- viability, T/C [34]: 108%
- viability, T/C [35]: 105%
- viability, T/C [36]: 101%

SMILES: O=c1[nH]cc(F)c(=O)[nH]1 + Nc1ccc(C#CCN(C(=O)Cc2ncc(C(F)(F)F)cc2C(F)(F)F)c2ccc(F)cc2)nn1
- IC50 (second compound 0.0316 µM): > 10000 nM
- IC50 (second compound 0.1 µM): > 10000 nM
- IC50 (second compound 0.316 µM): > 10000 nM
- IC50 (second compound 1 µM): > 10000 nM
- IC50 (second compound 3.16 µM): > 10000 nM
- IC50 (second compound 10 µM): > 10000 nM
- viability, T/C [1]: 101%
- viability, T/C [2]: 113%
- viability, T/C [3]: 93.8%
- viability, T/C [4]: 91.9%
- viability, T/C [5]: 68.7%
- viability, T/C [6]: 54.7%
- viability, T/C [7]: 117%
- viability, T/C [8]: 112%
- viability, T/C [9]: 101%
- viability, T/C [10]: 108%
- viability, T/C [11]: 64.9%
- viability, T/C [12]: 54.4%
- viability, T/C [13]: 103%
- viability, T/C [14]: 105%
- viability, T/C [15]: 119%
- viability, T/C [16]: 76.5%
- viability, T/C [17]: 66.5%
- viability, T/C [18]: 54.9%
- viability, T/C [19]: 107%
- viability, T/C [20]: 93.8%
- viability, T/C [21]: 96.4%
- viability, T/C [22]: 90.8%
- viability, T/C [23]: 61.3%
- viability, T/C [24]: 56.4%
- viability, T/C [25]: 102%
- viability, T/C [26]: 99%
- viability, T/C [27]: 103%
- viability, T/C [28]: 89%
- viability, T/C [29]: 65.1%
- viability, T/C [30]: 53.3%
- viability, T/C [31]: 101%
- viability, T/C [32]: 110%
- viability, T/C [33]: 95.5%
- viability, T/C [34]: 94.7%
- viability, T/C [35]: 68.9%
- viability, T/C [36]: 54.5%

SMILES: COc1cccc(OCCCN)c1-c1cc(Nc2cnc(C#N)cn2)n[nH]1 + Cc1cccc(N(C)C(=O)C2C(O)CCN2c2nc(C)cc(C(F)(F)F)c2C#N)c1
- IC50 (second compound 0.0316 µM): 5.14 nM
- IC50 (second compound 0.1 µM): 5.54 nM
- IC50 (second compound 0.316 µM): 5.35 nM
- IC50 (second compound 1 µM): 3.49 nM
- IC50 (second compound 3.16 µM): 4.87 nM
- IC50 (second compound 10 µM): < 3.16 nM
- viability, T/C (second compound 0.0316 µM, first compound 0.00316 µM): 80.6%
- viability, T/C (second compound 0.0316 µM, first compound 0.01 µM): 8.11%
- viability, T/C [1]: 6.8%
- viability, T/C [2]: 5.31%
- viability, T/C [3]: 4.65%
- viability, T/C [4]: 4.03%
- viability, T/C (second compound 0.1 µM, first compound 0.00316 µM): 89.8%
- viability, T/C (second compound 0.1 µM, first compound 0.01 µM): 8.11%
- viability, T/C [7]: 6.65%
- viability, T/C [8]: 5.48%
- viability, T/C [9]: 6.82%
- viability, T/C [10]: 4.61%
- viability, T/C (second compound 0.316 µM, first compound 0.00316 µM): 84.1%
- viability, T/C (second compound 0.316 µM, first compound 0.01 µM): 9.52%
- viability, T/C [13]: 6.22%
- viability, T/C [14]: 5.29%
- viability, T/C [15]: 5.08%
- viability, T/C [16]: 4.86%
- viability, T/C (second compound 1 µM, first compound 0.00316 µM): 53.9%
- viability, T/C (second compound 1 µM, first compound 0.01 µM): 8.32%
- viability, T/C [19]: 6.96%
- viability, T/C [20]: 6.49%
- viability, T/C [21]: 5.31%
- viability, T/C [22]: 4.98%
- viability, T/C (second compound 3.16 µM, first compound 0.00316 µM): 70.3%
- viability, T/C (second compound 3.16 µM, first compound 0.01 µM): 16.3%
- viability, T/C [25]: 7.33%
- viability, T/C [26]: 5.44%
- viability, T/C [27]: 6.24%
- viability, T/C [28]: 4.93%
- viability, T/C (second compound 10 µM, first compound 0.00316 µM): 48.1%
- viability, T/C (second compound 10 µM, first compound 0.01 µM): 11.5%
- viability, T/C [31]: 7.44%
- viability, T/C [32]: 5.3%
- viability, T/C [33]: 6.55%
- viability, T/C [34]: 4.1%

SMILES: CC1COCCN1c1cc(-c2ccnn2C)c2ccnc(-c3ccn[nH]3)c2n1 (stereo not drawn) + COC1C(OC(N)=O)C(O)C(Oc2ccc3c(O)c(NC(=O)c4ccc(O)c(CC=C(C)C)c4)c(=O)oc3c2C)OC1(C)C
- IC50 (second compound 0.0316 µM): 153 nM
- IC50 (second compound 0.1 µM): 145 nM
- IC50 (second compound 0.316 µM): 142 nM
- IC50 (second compound 1 µM): 146 nM
- IC50 (second compound 3.16 µM): 145 nM
- IC50 (second compound 10 µM): 127 nM
- viability, T/C [1]: 98.5%
- viability, T/C [2]: 65.1%
- viability, T/C [3]: 23.7%
- viability, T/C [4]: 15.9%
- viability, T/C [5]: 6.88%
- viability, T/C [6]: 15.2%
- viability, T/C [7]: 97.5%
- viability, T/C [8]: 61.8%
- viability, T/C [9]: 25.2%
- viability, T/C [10]: 16.6%
- viability, T/C [11]: 8.53%
- viability, T/C [12]: 17.1%
- viability, T/C [13]: 95.8%
- viability, T/C [14]: 61.8%
- viability, T/C [15]: 22.7%
- viability, T/C [16]: 19.8%
- viability, T/C [17]: 6.32%
- viability, T/C [18]: 15.3%
- viability, T/C [19]: 110%
- viability, T/C [20]: 62.7%
- viability, T/C [21]: 23.8%
- viability, T/C [22]: 16.6%
- viability, T/C [23]: 7.91%
- viability, T/C [24]: 16.6%
- viability, T/C [25]: 102%
- viability, T/C [26]: 61.2%
- viability, T/C [27]: 26.3%
- viability, T/C [28]: 16.6%
- viability, T/C [29]: 6.66%
- viability, T/C [30]: 14.4%
- viability, T/C [31]: 98.1%
- viability, T/C [32]: 57.9%
- viability, T/C [33]: 20.1%
- viability, T/C [34]: 17.1%
- viability, T/C [35]: 8.68%
- viability, T/C [36]: 16.7%
